# Results taken from paper PMC9268414, “Screening an In-House Isoquinoline Alkaloids Library for New Blockers of Voltage-Gated Na^+ Channels Using Voltage Sensor Fluorescent Probes: Hits and Biases” (Molecules, 2022).
# Like-named read-outs stand apart in the source and are kept apart here.
# Legend:
# hNaV1.3 channel = molecular target: T1, hNaV1.3 channel (Homo sapiens, UniProt Q9NY46); experiment: Automated patch-clamp, Na+ currents in HEK293-hNaV1.3 cells; format: cell-based
# T1 construct: expressed in transfected cells
# T1 sequence (Q9NY46 whole entry): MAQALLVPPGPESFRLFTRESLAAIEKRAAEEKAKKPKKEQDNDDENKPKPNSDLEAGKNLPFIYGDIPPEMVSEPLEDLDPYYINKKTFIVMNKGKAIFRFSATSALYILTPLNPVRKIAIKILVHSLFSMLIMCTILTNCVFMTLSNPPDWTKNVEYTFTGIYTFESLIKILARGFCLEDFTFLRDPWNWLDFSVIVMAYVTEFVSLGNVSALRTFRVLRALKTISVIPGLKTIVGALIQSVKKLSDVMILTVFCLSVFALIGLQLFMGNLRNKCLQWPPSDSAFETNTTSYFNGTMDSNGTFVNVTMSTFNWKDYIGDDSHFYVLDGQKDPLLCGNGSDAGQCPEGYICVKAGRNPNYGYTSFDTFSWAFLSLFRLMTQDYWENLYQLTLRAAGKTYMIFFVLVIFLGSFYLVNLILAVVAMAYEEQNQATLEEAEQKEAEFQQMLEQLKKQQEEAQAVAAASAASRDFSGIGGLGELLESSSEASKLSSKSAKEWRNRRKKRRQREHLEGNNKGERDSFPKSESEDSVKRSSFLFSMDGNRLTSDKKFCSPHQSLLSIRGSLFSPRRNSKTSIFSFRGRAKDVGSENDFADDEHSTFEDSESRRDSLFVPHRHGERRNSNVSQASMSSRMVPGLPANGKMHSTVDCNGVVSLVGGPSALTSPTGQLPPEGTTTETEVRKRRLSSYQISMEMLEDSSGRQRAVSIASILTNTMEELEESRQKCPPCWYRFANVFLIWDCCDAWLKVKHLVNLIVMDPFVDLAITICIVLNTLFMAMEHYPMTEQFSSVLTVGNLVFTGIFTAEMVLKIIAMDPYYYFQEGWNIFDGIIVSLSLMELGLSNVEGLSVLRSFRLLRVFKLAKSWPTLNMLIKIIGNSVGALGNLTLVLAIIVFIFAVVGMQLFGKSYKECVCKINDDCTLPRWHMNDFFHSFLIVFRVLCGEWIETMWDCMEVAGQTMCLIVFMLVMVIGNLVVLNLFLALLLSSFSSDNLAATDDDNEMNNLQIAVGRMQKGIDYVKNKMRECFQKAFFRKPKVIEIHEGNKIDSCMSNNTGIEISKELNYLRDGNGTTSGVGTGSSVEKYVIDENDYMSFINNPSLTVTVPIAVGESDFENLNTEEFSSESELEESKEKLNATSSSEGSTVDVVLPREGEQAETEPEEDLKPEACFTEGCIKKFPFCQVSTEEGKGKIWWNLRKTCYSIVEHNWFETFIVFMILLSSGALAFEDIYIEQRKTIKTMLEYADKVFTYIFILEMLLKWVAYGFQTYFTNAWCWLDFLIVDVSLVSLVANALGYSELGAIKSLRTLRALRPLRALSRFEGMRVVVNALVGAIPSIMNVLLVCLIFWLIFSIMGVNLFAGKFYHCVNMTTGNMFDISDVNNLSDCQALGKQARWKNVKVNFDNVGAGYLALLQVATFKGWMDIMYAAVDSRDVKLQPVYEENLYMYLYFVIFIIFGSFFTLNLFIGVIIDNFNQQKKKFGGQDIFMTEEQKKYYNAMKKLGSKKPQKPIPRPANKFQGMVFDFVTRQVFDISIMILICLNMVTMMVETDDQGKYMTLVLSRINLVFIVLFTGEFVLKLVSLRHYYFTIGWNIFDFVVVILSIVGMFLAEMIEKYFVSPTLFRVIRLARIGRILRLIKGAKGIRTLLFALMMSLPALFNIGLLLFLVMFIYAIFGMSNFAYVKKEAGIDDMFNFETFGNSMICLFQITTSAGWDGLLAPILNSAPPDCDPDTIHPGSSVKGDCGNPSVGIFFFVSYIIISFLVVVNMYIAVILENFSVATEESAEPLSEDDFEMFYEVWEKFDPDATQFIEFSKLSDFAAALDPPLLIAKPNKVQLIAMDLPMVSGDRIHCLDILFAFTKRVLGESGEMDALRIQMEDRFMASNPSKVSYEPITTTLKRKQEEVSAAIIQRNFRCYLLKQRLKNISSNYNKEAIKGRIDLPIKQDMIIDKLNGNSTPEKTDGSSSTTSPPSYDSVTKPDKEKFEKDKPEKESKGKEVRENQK
# Method: (§1) GH3b6 cells are a subclone of the GH3 pituitary cell line and were a generous gift from Dr. Françoise Macari (IGF, Montpellier, France). GH3b6 cells were cultivated from passage 14 until passage 32 at 37 °C/5% CO2 in Dubelcco’s Modified Eagle Medium (DMEM)/F12 (Lonza, Basel, Switzerland), supplemented with 10% FBS (Lonza, Basel, Switzerland), 1 mM L-glutamine, and 1 mM penicillin and streptomycin solution. For the fluorescence assay, the GH3b6 cells were seeded in black-walled, clear-bottom, 96-well, tissue culture-treated, and sterile imaging plates (Corning Hazebrouck, France), at a density of 10,000 cells per well, and incubated for 24 h before starting the experiment. The human Nav1.3 (hNav1.3) channel-expressing cell line (HEK293) used in this work was a generous gift from Massimo Mantegazza (IPMC, Nice, France). HEK293-hNaV1.3 cells were cultivated from passage 20 until passage 35 at 37 °C/5% CO2 in a DMEM high glucose medium (4.5 g/l), supplemented with 10% FBS, pyruvate, L-glutamine, and penicillin and streptomycin solution, each one at 1 mM, completed with 800 µg/mL geneticin G418. For the fluorescence assays, the cells were plated at a density of 50,000 cells per well in black-walled, clear-bottom, 96-well plates and then cultured at 37 °C and 5% CO2 for 24 h before the experiments. HEK293 stably expressing hNaV1.2 and hNaV1.6 were cultivated in the same conditions mentioned above for the HEK293-hNaV1.3 cells. For the automated patch-clamp experiments, cells were passaged from 24 to 48 h prior to the experiment and replated in the appropriate quantity to reach 50–70% confluence. For electrophysiological recordings, cells were detached with trypsin-EDTA and diluted in a culture medium. Then, the cells were centrifuged at 800 rpm for 4 min and resuspended (~300,000 cells/mL) in a patch-clamp extracellular solution.
# (§2) Whole-cell recordings were used to investigate the effects of oxostephanine, liriodenine, thalmiculine, bebeerine, and protopine on HEK293 cells stably expressing the hNav1.2, hNav1.3, and hNav1.6 channels. Automated patch-clamp recordings were performed using the SyncroPatch 384PE from Nanion (München, Germany). Chips with a single hole (n = 384, series resistance 3.93 ± 1.19 MΩ) were used for HEK293 cell recordings. Pulse generation and data collection were performed with the PatchControl384 v1.9.7 software (Nanion) and the Biomek interface (Beckman Coulter). Whole-cell recordings were conducted according to the recommended procedures of Nanion. The cells were stored in a cell hotel reservoir at 10 °C, with a shaking speed of 60 RPM. After initiating the experiment, cell catch, sealing, whole-cell formation, liquid application, recording, and data acquisition were all performed sequentially and automatically. The intracellular solution contained (in mM): 10 CsCl, 110 CsF, 10 NaCl, 10 EGTA, and 10 HEPES (pH 7.2, osmolarity 280 mOsm), and the extracellular solution contained (in mM): 60 NMDG, 80 NaCl, 4 KCl, 2 CaCl2, 1 MgCl2, 5 Glucose, and 10 HEPES (pH 7.4 (NaOH), osmolarity 280 ± 3 mOsm). Whole-cell experiments were performed at a holding potential of −100 mV at room temperature (18–22 °C). Currents were sampled at 20 kHz. For pharmacological assays, alkaloid solutions were prepared at 30 µM in the extracellular solution supplemented with 0.3% bovine serum albumin and distributed in 384-well compound plates according to a pre-established plate plan. This distribution within compound plates could not be randomized since it would then excessively complexify the methods of analyses. The working compound solution was diluted 3 times in the patch-clamp recording well by adding from 30 to 60 µL of the external solution to reach the final reported concentration and the test volume of 90 µL. The effects of IA (10 µM) or of BTX (1 µM) were measured at the end of a 10 min application time. Activation curves were built by depolarizations lasting for 2000 ms, from −130 mV to 40 mV, using 5 mV increment steps. […]
# hNaV1.6 channel = molecular target: T2, hNaV1.6 channel (Homo sapiens, UniProt Q9UQD0); experiment: Automated patch-clamp, Na+ currents in HEK293-hNaV1.6 cells; format: cell-based; details: 10 µM
# T2 construct: expressed in transfected cells
# Method: as §1, §2
# hNaV1.2 channel = molecular target: T3, hNaV1.2 channel (Homo sapiens, UniProt Q99250); experiment: Automated patch-clamp, Na+ currents in HEK293-hNaV1.2 cells; format: cell-based; details: 10 µM
# T3 construct: expressed in transfected cells
# T3 sequence (Q99250 whole entry): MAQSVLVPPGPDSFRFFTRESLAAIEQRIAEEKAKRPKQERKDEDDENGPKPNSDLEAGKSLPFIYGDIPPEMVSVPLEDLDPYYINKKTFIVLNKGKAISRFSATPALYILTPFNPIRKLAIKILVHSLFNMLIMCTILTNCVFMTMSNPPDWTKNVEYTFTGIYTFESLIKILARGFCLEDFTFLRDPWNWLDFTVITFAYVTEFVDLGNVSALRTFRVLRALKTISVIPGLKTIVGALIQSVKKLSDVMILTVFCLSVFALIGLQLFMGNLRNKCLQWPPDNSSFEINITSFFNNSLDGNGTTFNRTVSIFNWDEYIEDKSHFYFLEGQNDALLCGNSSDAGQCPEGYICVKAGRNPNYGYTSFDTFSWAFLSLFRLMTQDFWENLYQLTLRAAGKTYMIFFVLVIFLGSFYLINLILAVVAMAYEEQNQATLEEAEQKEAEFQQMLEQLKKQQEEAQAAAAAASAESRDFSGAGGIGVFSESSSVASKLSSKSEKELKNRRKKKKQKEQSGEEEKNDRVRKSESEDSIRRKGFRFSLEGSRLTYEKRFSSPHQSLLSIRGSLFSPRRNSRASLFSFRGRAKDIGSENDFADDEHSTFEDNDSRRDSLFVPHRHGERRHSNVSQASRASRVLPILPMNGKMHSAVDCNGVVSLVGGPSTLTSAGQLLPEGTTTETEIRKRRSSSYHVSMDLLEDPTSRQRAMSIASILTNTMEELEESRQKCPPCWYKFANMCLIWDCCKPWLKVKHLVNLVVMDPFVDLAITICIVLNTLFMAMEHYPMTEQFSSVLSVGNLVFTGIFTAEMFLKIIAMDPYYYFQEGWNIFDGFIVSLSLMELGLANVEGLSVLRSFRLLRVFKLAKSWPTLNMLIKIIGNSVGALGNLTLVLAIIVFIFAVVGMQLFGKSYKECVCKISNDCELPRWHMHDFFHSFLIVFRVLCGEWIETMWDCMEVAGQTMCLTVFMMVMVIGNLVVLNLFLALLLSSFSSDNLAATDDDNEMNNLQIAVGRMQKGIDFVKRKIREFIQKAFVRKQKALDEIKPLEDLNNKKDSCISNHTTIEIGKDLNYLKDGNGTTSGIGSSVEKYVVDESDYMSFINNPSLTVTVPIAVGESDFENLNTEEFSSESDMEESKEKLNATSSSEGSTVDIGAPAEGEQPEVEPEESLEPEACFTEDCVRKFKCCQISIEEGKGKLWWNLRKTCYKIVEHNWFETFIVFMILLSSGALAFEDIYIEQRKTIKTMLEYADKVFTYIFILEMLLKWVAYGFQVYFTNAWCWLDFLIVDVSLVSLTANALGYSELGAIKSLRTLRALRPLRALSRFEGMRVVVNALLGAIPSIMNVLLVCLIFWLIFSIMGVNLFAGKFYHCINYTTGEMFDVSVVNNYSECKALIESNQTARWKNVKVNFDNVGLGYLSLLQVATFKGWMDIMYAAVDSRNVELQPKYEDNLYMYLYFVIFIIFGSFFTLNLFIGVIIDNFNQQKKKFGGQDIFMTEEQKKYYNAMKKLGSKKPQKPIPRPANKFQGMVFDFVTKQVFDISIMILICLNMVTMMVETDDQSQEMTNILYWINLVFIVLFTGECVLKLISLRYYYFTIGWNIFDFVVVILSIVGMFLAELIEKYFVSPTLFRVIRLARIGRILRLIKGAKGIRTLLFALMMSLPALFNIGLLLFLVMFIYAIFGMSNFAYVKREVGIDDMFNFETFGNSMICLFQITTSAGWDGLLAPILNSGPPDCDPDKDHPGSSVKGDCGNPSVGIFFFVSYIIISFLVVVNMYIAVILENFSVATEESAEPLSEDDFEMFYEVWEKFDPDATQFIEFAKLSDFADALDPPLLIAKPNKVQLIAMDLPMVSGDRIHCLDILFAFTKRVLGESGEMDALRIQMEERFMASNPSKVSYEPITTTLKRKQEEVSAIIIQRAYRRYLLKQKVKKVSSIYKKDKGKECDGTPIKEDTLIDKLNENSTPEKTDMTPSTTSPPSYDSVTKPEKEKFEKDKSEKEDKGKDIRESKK
# Method: as §1, §2
# [1] = system: Na+ currents recorded in isolated cardiomyocytes; details: cited from earlier work
# human NaV1.3 channel = human NaV1.3 channel (Homo sapiens, UniProt Q9NY46); experiment: ANG-2 intracellular Na+ fluorescent assay in HEK293-hNaV1.3 cells; format: cell-based; details: IA at 10 µM; BTX 3 µM; HEK293-hNaV1.3; read-out: Inhibition of BTX-induced [Na+]i elevation (ANG-2 signal)
# human NaV1.3 channel, sequence (Q9NY46 whole entry): as the sequence (Q9NY46 whole entry) above
# [2] = system: NaV channels endogenously expressed in GH3b6 cells; experiment: FRET voltage sensor probe (VSP) assay of BTX-induced depolarization in GH3b6 cells; format: cell-based, rat; details: GH3b6 cells; for IC50: read-out: IC50 (µM), inhibition of BTX-evoked VSP signal
# [3] = 10 µM IA in the presence of 1 µM BTX
smiles,measurement,setting,value
"O=C1c2ccccc2-c2c3c(cc4ccnc1c24)OCO3 [IA39, liriodenine]",Effect on V1/2 activation of hNaV1.3,hNaV1.3 channel; [3],positively shifted
same,Effect on current densities of hNaV1.3 at −60 mV,hNaV1.3 channel; [3],significantly decreased
same,Effect on slow-down of inactivation induced by BTX (AUC),"hNaV1.3 channel; 10 µM IA, BTX 1 µM, hNaV1.3",significantly decreased
same,Effect on Na+ currents elicited by hNaV1.3,"hNaV1.3 channel; 10 µM, HEK293-hNaV1.3, without BTX",no effects
same,Change in V1/2 of activation and inactivation vs control,"hNaV1.3 channel; hNaV1.3, 10 µM",ns
same,Effect on Na+ currents elicited by hNaV1.6,hNaV1.6 channel; HEK293-hNaV1.6,no effects
same,Change in V1/2 of activation and inactivation vs control,hNaV1.6 channel; hNaV1.6,ns
same,Effect on Na+ currents elicited by hNaV1.2,hNaV1.2 channel; HEK293-hNaV1.2,no effects
same,Change in V1/2 of activation and inactivation vs control,hNaV1.2 channel; hNaV1.2,ns
same,"IC50, suppression of Na+ currents in isolated cardiomyocytes",[1],micromolar range
same,inhibition at 10 µM,human NaV1.3 channel,50 ± 10%
same,Maximum of Inhibition of BTX-evoked VSP signal,"[2]; BTX 1 µM, n = 6, % printed only",83.78 ± 6.59%
same,IC50,"[2]; BTX 1 µM, n = 6, listed as liriodenine",5 to 6 µM
same,IC50,"[2]; BTX 1 µM, n = 6",5 ± 0.1 µM
same,Inhibitory Effects (%) on BTX-induced VSP signal (screening),[2]; IA at 10–50 µg/mL co-incubated with 1 µM BTX,99.1%
